Test results reported in publication PMC11468294, “Peptide Amphiphiles as Biodegradable Adjuvants for Efficient Retroviral Gene Delivery” (Advanced Healthcare Materials, 2023).
Entries after “also recorded” stand apart in the source; their conditions may differ. Where a SMILES comes first, the peptide text is derived from it. Where no end group is shown, it is not given here. The star is where a group is joined. Palmitoyl = CCCCCCCCCCCCCCCC(=O)*; Nonanoyl = CCCCCCCCC(=O)*

What was measured:
HeLa cells = assay type: in vitro ADME; details: HeLa cells; for degradability by cells (in words): 2 µg peptide added to 20,000 cells, d0 (30 min) vs d3, degradable if number and size of aggregates are reduced after 3 days; for degradability (percentual degradation by aggregate number): 2 µg peptide (10 µg mL-1) added to 20,000 cells, 37°C, aggregates > 10 µm2 in 1008 µm × 1008 µm at d3 (72 h) vs d0 (30 min), Proteostat, confocal, three technical replicates
Protocol: Confocal laser scanning microscopy and degradation study with PA library and HeLa cells: Confocal laser scanning microscopy studies were performed for the visualization of the cell‐PA interaction. HeLa cells were seeded one day prior to conducting the assay (20000/well) in an 8‐well IBIDI slide. 2 µL of the preformed peptide fibrils (1 mg mL^−1) were diluted with 2 µL Proteostat (Enzo Life Science, 1 µL stock in 99 µL PBS) and incubated for 10 min and further diluted with medium to receive a final peptide concentration of 10 µg mL^−1. The nucleus of the HeLa cells was stained with Hoechst 33 342 (NucBlue, Thermo Fisher Scientific). The peptide solution mixture was transferred to the HeLa cells and incubated for 30 min at 37°C before washing three times with PBS. The interaction of fibril clusters with cells was monitored after 30 min incubation time on a Stellaris 8 confocal laser scanning microscope (Leica) equipped with a 20x air objective and laser excitation wavelengths of 405 nm (Hoechst), and 561 nm (Proteostat). For the evaluation of aggregate degradation, the samples were further incubated at 37°C for 3 d and analyzed without any additional washing step. The evaluation of aggregate size and number was conducted by analyzing Proteostat stained aggregates via the 3D objects counter function of ImageJ 1.53f51 for 3 individual measurements (area 1008 µm × 1008 µm). […] The number of aggregates were determined by counting aggregates larger than the threshold 10 µm^2 in an area of 1008 µm × 1008 µm and repeated in three technical triplicates.
(§1) 7 Effects of PA modifications on properties and activity
(§2) To investigate the effects of modification in the PA sequence, we created various peptide amphiphiles derived from PA1 by varying the (I) hydrophobic moiety, (II) the linkage chemistry and (III) the peptide sequence (Figure S12, SI chapter 7.1 – 7.3). The color code for sequence representation is yellow for the hydrophobic moiety, blue for cationic amino acids, red for non-polar amino acids, purple for polar uncharged amino acids, and green for anionic amino acids. To be concise, only the summarized information will be discussed, all original data for the peptides are summarized in the (Figure S26 - […]
(§3) Figure S12 Summarized overview of peptide amphiphile library in which systematic variations the original sequence […]
(§4) chemistry and (III) the peptide sequence on infectivity enhancement and degradability (see SI chapter 7.1 – 7.3).
(§5) In the following section a compound is considered infectivity enhancing if n-fold infectivity at 1.3 µM is larger than 2. A compound is considered to form µm-sized aggregates if visible particles were observed in widefield microscopy (brightfield or ThT-staining filter, objective 10x) or confocal […]
(§6) than 1000 kcps in Zeta-Potential measurements.
(§7) For the degradability only the PAs which could be stained with Proteostat (Figure S26) and were visible in microscopy (Figure S15, Figure S18, Figure S21, and Figure S22) were studied in detail. To determine […]
whether a PA is degraded or not, Proteostat stained PAs which are added to Hela cells (2 µg peptide added to 20.000 cells) and studied via confocal laser scanning microscopy. Microscopy is conducted at day 0 (d0, after 30 min of incubation) and at day 3 (d3, after 72 h of incubation). The number of aggregates >10 µm2 is counted via 3D object counter in ImageJ in an area of 1008 µm × 1008 µm.
A PA is considered as degradable if the number and the size of aggregates are reduced after 3 days.
The efficiency is determined by the percentual degradation (aggregate number at d3 / aggregate number at d0). Three technical replicates were evaluated for each sample. A large deviation in number and size of aggregates represents a nonhomogeneous distribution and polymorphism of aggregates.

[1] = Microscopic aggregation (fluorescence / confocal microscopy, derived count rate); assay type: physicochemical; details: fibrils preformed at 1 mg mL-1 in PBS; ThT or Proteostat stain, widefield or confocal microscopy; derived count rate > 1000 kcps as criterion
Protocol: Transmission electron microscopy (TEM) measurements, Thioflavin (ThT), zeta‐potential measurements for fibril characterization, ATR‐IR spectra acquisition and the calculation of β−sheet were prepared and conducted analogous to a previous report.^[ [20], [86] ^] […] Fibrils were defined as distinct, if no visible structures could be identified in fluorescence and brightfield microscopy. […] The derived count rate of the zeta‐potential measurement was used as information on the light scattering intensity and turbidity of the sample as a further indicator for microscopic aggregation.^[ [90] ^]
Fluorescence microscopy: 1 µL Fibrils (1 mg mL^−1) were stained with 9 µL, 50 µM ThT. 10 µL of the stained fibrils (0.1 mg mL^−1) were placed on a microscopy glass. Fluorescence microscopy measurements were performed on a Leica DMi8 microscope with 10x air objective and equipped with a Leica MC170 HD camera with a filter setting λem = 527/30 nm upon excitation at λex = 480/40 nm) and processed with the Leica LASX software.
as §1, §2, §3, §4, §5, §6, §7
whether a PA is degraded or not, Proteostat stained PAs which are added to Hela cells (2 µg peptide added to 20.000 cells) and studied via confocal laser scanning microscopy. […]
In the following, we will distinguish between three aggregation types for fibrillar structures: Fibrils which were not aggregating (below resolution limit of the microscope, approx. 650 nm), moderately aggregating (< 50 µm2) and aggregating to large particles (> 50 µm 2).
7.1 Effects of hydrophobic moiety exchange on properties and activity
To investigate the effects of varying hydrophobic moieties on assembly, aggregation and activity , we

[2] = test system: HIV-1 infection of TZM-bl cells; experiment: HIV-1 infection assay (β-galactosidase luminescence reporter); assay type: cell-based
Protocol: HIV‐1 Infection Assay: The effect of peptide fibrils on HIV‐1 infection was studied via a luminescence assay for β‐galactosidase, which was reported by TZM‐bl cells upon infection. 10000 TZM‐bl cells were seeded in 180 µl supplemented DMEM one day prior infection. The cells were inoculated with 20 µl PNF solution 1:1 (v/v) mixed with virus (1:500 dilution) after an incubation time of 10 min. The HIV‐1 infection assay was conducted in three technical replicates and repeated in three independent experiments unless stated otherwise. The assay was conducted as described before.^[ [20] ^]

Row | Compound | degradability by cells (in words) (HeLa cells) | formation of µm-sized aggregates (in words) [1] | other results
1 | CCCCCCCCCCCCCCCC(=O)OC[C@H](N)C(=O)N[C@H](C(=O)N[C@H](C(=O)N[C@H](C(=O)N[C@@H](C)C(=O)N[C@@H](C)C(=O)N[C@@H](C)C(=O)N[C@@H](CCCCN)C(=O)N[C@@H](CCCCN)C(=O)N[C@@H](CCCCN)C(N)=O)C(C)C)C(C)C)C(C)C (H-S(Palmitoyl)VVVAAAKKK-NH2) | degraded well | – | –
2 | NFYLQVNKINK-NH2 | no good degradability | – | –
3 | CCCCCCCCCCCCCCCC(=O)N[C@@H](CCCCN)C(=O)N[C@H](C(=O)N[C@H](C(=O)N[C@@H](CO)C(=O)N[C@@H](Cc1ccccc1)C(=O)N[C@@H](CCCCN)C(N)=O)[C@@H](C)CC)[C@@H](C)CC [C16-KIISFK-NH2] (Palmitoyl-KIISFK-NH2) | degraded incompletely | very large aggregates | –
4 | C16‐thioester‐CVVVAAAKKK‐NH2 [PA1 variant with thioester linker] | – | small, well distributed aggregates | degradability (percentual degradation by aggregate number) (HeLa cells): 87%
5 | CCCCCCCCCCCCCCCC(=O)N[C@@H](C)C(=O)NCC(=O)N[C@@H](C)C(=O)NCC(=O)N[C@@H](CCCNC(=N)N)C(=O)N[C@@H](CCCNC(=N)N)C(=O)N[C@@H](CCCNC(=N)N)C(N)=O [C16-AGAGRRR-NH2] (Palmitoyl-AGAGRRR-NH2) | – | not forming µm-sized aggregates and forming too few/less aggregates, respectively; also recorded: cannot form µm‐sized aggregates | infectivity enhancement of HIV-1 (in words) ([2]; infectivity enhancing if n-fold at 1.3 µM larger than 2): Inactive
6 | C16-disulfide-CVVVAAAKKK-NH2 [PA1 variant with disulfide linker] | – | not forming visible aggregates | reduction of infectivity enhancement relative to the original amide-linked PA ([2]; n-fold at 1.3 µM): approx. 60%
7 | CCCCCCCCCCCCCCCC(=O)N[C@@H](C)C(=O)N[C@H](C(=O)N[C@@H](C)C(=O)N[C@@H](CCCCN)C(=O)N[C@@H](CCCCN)C(=O)N[C@@H](CCCCN)C(N)=O)C(C)C [C16-AVAKKK-NH2] (Palmitoyl-AVAKKK-NH2) | – | not forming µm-sized aggregates and forming too few/less aggregates, respectively | –
8 | CCCCCCCCCCCCCCCC(=O)N[C@@H](C)C(=O)N[C@@H](CCCCN)C(=O)N[C@@H](C)C(=O)N[C@H](C(=O)NCC(=O)N[C@@H](CCCCN)C(N)=O)C(C)C [C16-AKAVGK-NH2] (Palmitoyl-AKAVGK-NH2) | – | – | degradability (percentual degradation by aggregate number) (HeLa cells): 89%
9 | CCCCCCCCCCCCCCCC(=O)N[C@@H](C)C(=O)N[C@@H](C)C(=O)N[C@H](C(=O)N[C@H](C(=O)N[C@@H](Cc1c[nH]cn1)C(=O)N[C@@H](Cc1c[nH]cn1)C(=O)N[C@@H](CCCCN)C(N)=O)C(C)C)C(C)C [C16-AAVVHHK-NH2] (Palmitoyl-AAVVHHK-NH2) | degraded incompletely | very large aggregates | –
10 | C16-AQAKAK [library peptide amphiphile, palmitic acid at the N-terminus] | degraded incompletely | very large aggregates | –
11 | CCCCCCCCCCCCCCCC(=O)N[C@@H](C)C(=O)N[C@@H](CC(C)C)C(=O)N[C@@H](C)C(=O)N[C@@H](C)C(=O)NCC(=O)N[C@@H](CCCCN)C(=O)N[C@@H](CCCCN)C(N)=O [C16-ALAAGKK-NH2] (Palmitoyl-ALAAGKK-NH2) | – | – | degradability (percentual degradation by aggregate number) (HeLa cells): 87%
12 | CCCCCCCCC(=O)N[C@H](C(=O)N[C@H](C(=O)N[C@H](C(=O)N[C@@H](C)C(=O)N[C@@H](C)C(=O)N[C@@H](C)C(=O)N[C@@H](CCCCN)C(=O)N[C@@H](CCCCN)C(=O)N[C@@H](CCCCN)C(N)=O)C(C)C)C(C)C)C(C)C [C9] (Nonanoyl-VVVAAAKKK-NH2) | reduced in number of aggregates, but increases in size | – | –
13 | CCCCCCCCCCCCCCCC(=O)N[C@H](C(=O)N[C@H](C(=O)N[C@@H](C)C(=O)N[C@@H](C)C(=O)N[C@@H](Cc1c[nH]cn1)C(=O)N[C@@H](Cc1c[nH]cn1)C(=O)N[C@@H](Cc1c[nH]cn1)C(N)=O)C(C)C)C(C)C [C16-VVAAHHH-NH2] (Palmitoyl-VVAAHHH-NH2) | increase in size, decrease in number | very large aggregates | –
14 | CCCCCCCCCCCCCCCC(=O)N[C@@H](CC(C)C)C(=O)N[C@@H](CC(N)=O)C(=O)NCC(=O)NCC(=O)N[C@H](C(=O)N[C@@H](CCCCN)C(=O)N[C@@H](CCCCN)C(N)=O)C(C)C [C16-LNGGVKK-NH2] (Palmitoyl-LNGGVKK-NH2) | – | – | degradability (percentual degradation by aggregate number) (HeLa cells): 48%
15 | CCCCCCCCCCCCCCCC(=O)N[C@@H](CCCCN)C(=O)N[C@@H](Cc1ccc(O)cc1)C(=O)N[C@H](C(=O)N[C@@H](Cc1c[nH]cn1)C(=O)N[C@@H](CCC(N)=O)C(=O)N[C@@H](CC(N)=O)C(=O)N[C@@H](Cc1ccc(O)cc1)C(=O)N[C@H](C(=O)N[C@@H](CCCCN)C(=O)N[C@@H](C)C(=O)N[C@@H](CC(C)C)C(=O)N[C@@H](C)C(=O)NCC(=O)N[C@@H](CCCCN)C(=O)N[C@@H](CC(C)C)C(=O)N[C@H](C(N)=O)C(C)C)[C@@H](C)O)[C@@H](C)CC (Palmitoyl-KYIHQNYTKALAGKLV-NH2) | degraded incompletely | very large aggregates | –
16 | CCCCCCCCCCCCCCCC(=O)N[C@@H](CC(N)=O)C(=O)N[C@@H](Cc1ccccc1)C(=O)N[C@@H](Cc1ccc(O)cc1)C(=O)N[C@@H](CC(C)C)C(=O)N[C@@H](CCC(N)=O)C(=O)N[C@H](C(=O)N[C@@H](CC(N)=O)C(=O)N[C@@H](CCCCN)C(=O)N[C@H](C(=O)N[C@@H](CC(N)=O)C(=O)N[C@@H](CCCCN)C(N)=O)[C@@H](C)CC)C(C)C (Palmitoyl-NFYLQVNKINK-NH2) | degraded incompletely | very large aggregates | –
